Measurements: paper PMC7391726, “Fatty acid mimetic PBI-4547 restores metabolic homeostasis via GPR84 in mice with non-alcoholic fatty liver disease” (Scientific Reports, 2020)

Key:
PPARδ = target: T1, PPARδ (Homo sapiens, UniProt Q03181); assay: Cell-based GAL4 transactivation assay in HEK293 cells, PPARδ LBD; conditions: compared to the control agonist GW0742
T1 construct: PPARδ (S139–Y440); expressed in transfected cells; host or cells: HEK293
T1 sequence (Q03181 139-441 limits assumed): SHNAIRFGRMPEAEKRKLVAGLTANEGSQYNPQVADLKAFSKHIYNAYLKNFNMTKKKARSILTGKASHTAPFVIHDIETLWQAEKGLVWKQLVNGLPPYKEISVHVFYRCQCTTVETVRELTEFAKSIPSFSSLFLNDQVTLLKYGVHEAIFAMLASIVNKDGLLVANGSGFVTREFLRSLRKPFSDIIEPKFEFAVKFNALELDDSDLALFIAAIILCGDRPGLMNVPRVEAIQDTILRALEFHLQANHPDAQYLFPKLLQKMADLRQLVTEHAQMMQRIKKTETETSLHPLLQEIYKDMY
Description: To determine the transcriptional activity of PBI-4547, a cell-based GAL4 transactivation assay in HEK293 cells transfected with either PPARα, PPARδ, or PPARγ LBD was used. […] However, PBI-4547 only partially activated PPARγ transcriptional activity, with a relative maximal efficacy of 38% of the control agonist rosiglitazone.
Generation of the Gαi2, Gαq, and GPR40/β-arrestin-2 BRET biosensors have been described previously. A plasmid encoding the human GPR120-L (long isoform) cDNA was obtained from R&D Systems. GPR120-S (short isoform) was generated by replacing the BglII-BsgI fragment from GPR120-L by a gBlock gene fragment (Integrated DNA Technologies, Coralville, IA) lacking the DNA sequence corresponding to the extra 16 amino acids found in the third intracellular loop of the long form. The GPR120-GFP10 construct was generated by inserting PCR-amplified GPR120-S (without its stop codon) in place of GPR40 in the GPR40-GFP10 plasmid. […]
HEK293 cells were co-transfected with pGL4.35[luc2P/9XGAL4UAS/Hygro] and GAL4-PPAR-Rluc plasmids, and after 24 h of incubation were treated with compounds for 24 h. Luciferase activity was determined with the Dual Glo luciferase assay (Promega). Firefly luminescence was normalized to the constitutively expressed Renilla luminescence, and results expressed as fold induction of vehicle control.

PPARα = target: T2, PPARα (Homo sapiens, UniProt Q07869); assay: LanthaScreen TR-FRET competitive binding assay, PPARα LBD; conditions: Cheng-Prusoff; read-out: Ki inhibition constant, PPARα LBD
T2 construct: glutathione S-transferase (GST)-tagged human PPAR-LBD; purchased Fisher Scientific
T2 sequence (Q07869 239-466 limits assumed): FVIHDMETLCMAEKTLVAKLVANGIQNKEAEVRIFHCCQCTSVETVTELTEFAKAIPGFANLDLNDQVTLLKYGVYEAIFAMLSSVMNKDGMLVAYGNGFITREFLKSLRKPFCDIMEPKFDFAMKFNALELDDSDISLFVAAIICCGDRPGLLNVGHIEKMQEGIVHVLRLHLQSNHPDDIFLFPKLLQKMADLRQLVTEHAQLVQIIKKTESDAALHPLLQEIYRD
Description: The peroxisome proliferator-activated receptors (PPARs), PPARα, PPARδ, and PPARγ are ligand-dependent transcription factors regulated by FAs, including MCFAs, which control expression of several key metabolism-associated genes. We thus characterized the binding and transcriptional activity of PBI-4547 to these receptors. A LanthaScreen TR-FRET competitive binding assay was used to determine the binding affinity of PBI-4547 in comparison to the full control agonists GW7647 (PPARα), GW0742 (PPARδ), and rosiglitazone (PPARγ).
The LanthaScreen time-resolved fluorescence resonance energy transfer (TR-FRET) PPARα, PPARδ and PPARγ competitive binding assay (Fisher Scientific) was performed according to the manufacturer’s protocol. […] The FRET signal was measured using an Infinite M1000 microplate reader by excitation at 332 nm and emission at 520 nm for fluorescein and 490 nm for terbium. Competitive ligand binding to PPAR is detected by a test compound’s ability to displace the Fluormone pan-PPAR Green from the LBD, which results in a decrease of the 520 nm/490 nm TR-FRET ratio. The inhibition constant (Ki) of the competitor ligand was calculated by applying the Cheng-Prusoff equation.

ob/ob mice = assay: ob/ob leptin-deficient genetic mouse model of metabolic syndrome; assay type: in vivo
Description: We next sought to confirm our above findings obtained from the diet-induced model of obesity by using the ob/ob leptin-deficient genetic mouse model of metabolic syndrome. […] Additionally, the mRNA expression profiles of glucose- and FA-related genes in liver (Fig. S4D,E) and WAT (Fig. S5) also differed between pioglitazone- and PBI-4547-treated mice.

CCCCCc1cc(CCCCC)cc(CC(=O)[O-])c1.[Na+] [PBI-4547, 2-[3,5-dipentylphenyl]acetate sodium salt]
PPARδ transcriptional activity (PPARδ): very weak
Ki (PPARα): 489 nM
bodyweight (ob/ob mice): significantly reduced
prevention of clinical manifestations of fatty liver disease (liver histology) (ob/ob mice): more effective than pioglitazone
